According to PMC7217877, “N-AS-triggered SPMs are direct regulators of microglia in a model of Alzheimer’s disease” (Nature Communications, 2020):
Positions count from the first letter of the chain named. Where “and” joins values, the source holds several entries; their conditions need not be identical. Identical values can stand only once.

Assays:
COX2 N181A = molecular target: T1, COX2 N181A (Homo sapiens, UniProt P35354, N181A); assay: filter binding assay of [14C] N-AS to COX2; conditions: replicates
T1 construct: His (N); made in house
T1 sequence (P35354 18-604 N181A): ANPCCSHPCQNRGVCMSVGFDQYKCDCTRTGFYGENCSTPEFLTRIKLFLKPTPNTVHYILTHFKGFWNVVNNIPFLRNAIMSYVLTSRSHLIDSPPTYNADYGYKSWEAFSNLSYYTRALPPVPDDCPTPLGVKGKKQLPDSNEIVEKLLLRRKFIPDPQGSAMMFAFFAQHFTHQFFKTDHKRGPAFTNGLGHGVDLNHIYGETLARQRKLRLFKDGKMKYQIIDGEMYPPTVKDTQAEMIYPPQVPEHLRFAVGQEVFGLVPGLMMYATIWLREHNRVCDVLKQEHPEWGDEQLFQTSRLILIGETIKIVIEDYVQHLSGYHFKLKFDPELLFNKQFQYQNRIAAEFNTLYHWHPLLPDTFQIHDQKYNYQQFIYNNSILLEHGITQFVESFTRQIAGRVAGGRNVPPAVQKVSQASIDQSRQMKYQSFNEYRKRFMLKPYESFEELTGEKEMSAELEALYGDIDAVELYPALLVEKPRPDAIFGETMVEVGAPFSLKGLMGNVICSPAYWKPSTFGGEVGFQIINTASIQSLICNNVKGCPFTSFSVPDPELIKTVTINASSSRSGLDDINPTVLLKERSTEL
Excerpt: (§1) Single point mutations in SphK1 (R56A, R57A, R24A, R185A, D178A, and F192A) and COX2 (S565A, N181A, T564A, and S567A) were generated using the In-Fusion Cloning Kits (Clontech) and ORF cDNA expression plasmids of human SphK1 and COX2 gene (Sino Biological Inc, HG15679-NH and HG12036-NH), according to the manufacturer’s instructions. The forward and reverse primers described in Supplementary Table 4. The SphK1 WT, SphK1 mutants, COX2 WT, and COX2 mutant plasmids were transformed in the One shot TOP 10 competent cell (Invitrogen). The bacteria were grown in Luria-Bertani (LB, Invitrogen) plates supplemented with 50 μg ml^−1 kanamycin (Sigma-Aldrich) at 37 °C. The bacterial cell pellets were resuspended in lysis buffer containing 20 mM sodium phosphate (GE Healthcare), 500 mM NaCl (GE Healthcare), 20 mM imidazole (pH 7.4) (GE Healthcare), 0.2 mg ml^−1 lysozyme (Sigma-Aldrich), 20 μg ml^−1 DNase I (Roche), 1 mM MgCl2 (Sigma-Aldrich), and 1 mM PMSF (Sigma-Aldrich) before being lysed by sonication and clarified by centrifugation at 15,493×g for 10 min. Proteins were purified from the soluble fraction using His-Spin Trap columns (GE Healthcare) and the binding and acetylation assays were performed.
(§2) Briefly, SphK1 WT and mutant enzymes (1 mU) were resuspended in 100 μl reaction buffer (20 mM HEPES; pH 7.4, 50 mM NaCl, 10 mM MgCl2, 1 mM EGTA, 0.02% Triton-X100, and 100 μM sphingosine, all from Sigma-Aldrich). […] Briefly, COX2 WT and mutant enzymes (1 mU) were resuspended in 100 μl reaction buffer (20 mM HEPES; pH 7.4, 50 mM NaCl, 10 mM MgCl2, 1 mM EGTA, and 0.02% Triton-X100, all from Sigma-Aldrich). Reactions were initiated by adding [^14C] N-AS (1–200 μM (0.1–20 μCi), ARC UK Ltd, ARC-1024) and incubated at 37 °C for 1 h. The reactions were terminated by adding 100 μl of ice-cold reaction buffer containing 5 mM cold N-AS and immediately filtered through P30 filtermat (Perkin-Elmer), followed by five washes.
(§3) The binding velocity was plotted and the Kcat and KM values were calculated from the Michaelis-Menten analysis using the Sigma-plot program (ver 10.0, Systat software Inc.).

COX2 T564A [1] = molecular target: T2, COX2 T564A (Homo sapiens, UniProt P35354, T564A); assay: filter binding assay of [14C] N-AS to COX2; conditions: replicates
T2 construct: His (N); made in house
T2 sequence (P35354 18-604 T564A): T1 sequence (P35354 18-604 N181A) with A164N, T547A
Excerpt: as §1, §2, §3

COX2 T564A [2] = molecular target: T2, COX2 T564A; assay: in vitro [14C] acetylation assay of purified COX2; format: biochemical; design: unit not given here; conditions: replicates, listed as C14 N-AS
Excerpt: as §1, with “Proteins were purified from the soluble fraction using His-Spin Trap columns (GE Healthcare) and the binding and acetylation assays were performed.” left out
Acetylation assays were performed according to previously described procedures with minor modifications. […] Acetylated COX2 proteins bound to the beads were analyzed using a Tri-Carb 3110TR liquid scintillation counter (Perkin-Elmer).

## CCCCCCCCCCCCC/C=C/[C@@H](O)[C@H](CO)NC(C)=O [N-AS, N-((2S,3R,E)-1,3-Dihydroxyoctadec-4-en-2-yl)acetamide]
COX2 N181A; 1 uM
  binding velocity (Vbinding): 0.642 nM/min and 0.892 nM/min and 0.879 nM/min
COX2 N181A; 5 uM
  binding velocity (Vbinding): 7.037 nM/min and 14.518 nM/min and 5.980 nM/min
COX2 N181A; 10 uM
  binding velocity (Vbinding): 11.465 nM/min and 12.134 nM/min and 6.758 nM/min
COX2 N181A; 20 uM
  binding velocity (Vbinding): 15.248 nM/min and 14.109 nM/min and 13.356 nM/min
COX2 N181A; 100 uM
  binding velocity (Vbinding): 24.771 nM/min and 29.019 nM/min and 25.078 nM/min
COX2 N181A; 200 uM
  binding velocity (Vbinding): 41.872 nM/min and 40.849 nM/min and 37.213 nM/min
COX2 T564A [1]; 1 uM
  binding velocity (Vbinding): 0.251 nM/min and 0.379 nM/min and 0.622 nM/min
COX2 T564A [1]; 5 uM
  binding velocity (Vbinding): 7.230 nM/min and 6.808 nM/min and 11.168 nM/min
COX2 T564A [1]; 10 uM
  binding velocity (Vbinding): 7.378 nM/min and 8.069 nM/min and 9.338 nM/min
COX2 T564A [1]; 20 uM
  binding velocity (Vbinding): 12.382 nM/min and 16.697 nM/min and 16.993 nM/min
COX2 T564A [1]; 100 uM
  binding velocity (Vbinding): 28.376 nM/min and 29.582 nM/min and 24.951 nM/min
COX2 T564A [1]; 200 uM
  binding velocity (Vbinding): 37.587 nM/min and 41.759 nM/min and 47.017 nM/min
COX2 T564A [2]
  C14 radioactivity of COX2, acetylation assay (Fig 1h): 226529 and 226073 and 226403 and 227396 and 226676 and 226952
